Reference: US11021454B2, “Type of aryl benzofuran amidated derivative and medical use thereof” (CHINA PHARMACEUTICAL UNIVERSITY, priority 2016, dated 2021)
Marks after values point to notes of the source that are not given here.

How the values were obtained:
[1] = system: Normal hepatocyte LO2; assay: Inhibition of uric acid production in xanthine-modelled hepatocyte cell model; format: cell-based
Method: The effect of benzofuran amidated derivatives on uric acid production is evaluated using a cell model.
(2) Experimental procedure: Normal hepatocyte LO2 are inoculated in a 6-well plate (plate density 1×10^6 cells/mL), and cell experiments are performed after 4 hours of plating.
(3) Pre-treatment of mass spectrometry: take 100 μL of the medium collected, add MeOH 400 μL, CHCl3 100 μL and H2O 300 μL, perform vortex mixing, and centrifuging at 20000 g for 10 min, then take the upper layer for concentration and dry.

[2] = system: LPS-stimulated macrophage RAW 264.7; assay: Scavenging of superoxide anion in LPS-stimulated macrophage RAW 264.7 (2-OH-E+ by LC-MS); format: cell-based; details: for scavenging effect on superoxide anion compared to the model group: LPS-stimulated RAW 264.7; for Decrease of 2-OH-E+ (%): test drug 10 μM, 0.1 μg/mL LPS, 24 h, RAW 264.7
Method: The antioxidant activity (the ability to scavenge superoxide anion) of the synthesized benzofuran amidated derivative is evaluated by a cell model.
After phagocytosis of bacteria, senescent denatured cells, immune complexes or oxidized low-density lipoproteins, mammalian macrophages cells enter a functional activation state, with enhanced intracellular lysosomal function and increased ROS levels, and they secrete and synthesize inflammatory cytokines. Lipopolysaccharide (LPS) is the main component of the cell wall of Gram-negative bacteria and is the main material basis for its pathogenesis; it can stimulate the production of monocytes/macrophages and release a large amount of reactive oxygen species (mainly including O2^− and H2O2), inflammatory factors such as nitric oxide (NO), IL-1β and Tumor necrosis factor-α (TNF-α) that are involved in the acute phase response of the body, causing inflammatory damage to the body. The present invention utilizes the LPS-stimulated macrophage model to evaluate the antioxidant activity of benzofuran amidated derivatives to scavenge superoxide anion at the cellular level.
(2) LPS: accurately weigh the appropriate amount of LPS, and prepare a sample stock solution of 0.1 g/ml, with DMEM and store at −20° C. for later use.
(3) Probe Stabilizer DTPA: Weigh accurately the amount of DTPA, prepare a 20 mM sample stock solution with DMSO, dilute to 100 µM with PB, and store at 4° C. for use.
(4) HE: Prepare a 20 mmol/L stock solution by dissolving the probe with dimethyl sulfoxide under anaerobic and dark conditions, and store at −80° C. in the dark. Take it out before use, prepare a 10 μmol/L solution with DMEM, place it on ice and store it in the dark.
(1) RAW 264.7 cells are cultured in Petri dishes (60 mm), 4 mL per dish, and incubated in a 5% CO2 incubator with saturated humidity at 37° C. The experiment is divided into blank group, model group and drug-administered group.
(2) After 12 h of cell culture, the supernatant is discarded, and the test drug with a final concentration of 10 μM containing 0.1 μg/mL LPS medium is added, and two parallel holes are provided for each sample to be tested.
(3) Continue to culture in a cell culture incubator for 24 h, the supernatant is discarded, the cells are washed with PBS, and added to DMEM medium containing the probe HE (10 μM) and cultured in the dark for 30 min.
(4) The cells are then washed twice with ice-cold PBS/(100 μM) DTPA, then added 1 mL PBS/(100 μM) DTPA, before the cells are divided into two with a spatula (700 μL and 300 μL) and collected into EP tubes; then they are centrifuged at 13,000 rpm for 10 min at 4° C., the supernatant is removed, and the cell pellet are stored at −80° C. for future use.
(2) Pretreatment of the sample to be tested: 500 μL acetonitrile is added to each EP tube, protected from light, sonicated (10 s, eight cycles, 100 W), and centrifuged at 12,000 g for 10 min at 4° C. The supernatant is transferred to a 1.5 mL EP tube and dried under vacuum for 1 h to obtain a red dried material; the sample is then re-dissolved with 100 μL of mass spectrometry water, and the internal standard substance galantamine is added to make the final concentration of the sample to be tested at 0.1 μM. The sample to be tested is then centrifuged at 13,000 rpm for 10 min at 4° C. and analyzed by LC-MS.

[3] = target: xanthine oxidase (Homo sapiens (Human), UniProt P47989); assay: Xanthine oxidase inhibitory activity (absorbance at 295 nm, xanthine substrate); format: biochemical; details: average of four parallel experiments
Method: Determination of Xanthine Oxidase Inhibitory Activity of Aryl Benzofuran Amidated Derivatives and Reagents (Amino Derivatives)
(2) XOD solution: Take 25 U/2.6 mL of XOD, dilute to 0.08 U/mL of XOD working solution with 75 mM PB solution, mix well with a pipette, store on ice for future use;
(3) Substrate preparation: accurately weigh the appropriate amount of xanthine (XA) into 5 mL of 0.1 N NaOH solution, dissolve it ultrasonically, and add 95 mL of 75 mM PB solution to prepare a substrate mother liquor with a final concentration of 0.48 mM, perform vortex mixing for 1 min; it is to be freshly prepared before each experiment;
Use DB to dilute to different concentrations ([…]) before the experiment, and the DMSO content is less than 0.1%.
(§1) Data processing: Data is processed by using Excel analysis and half-inhibitory concentration (IC50) is calculated by using GraphPad Prism 6.0.2.

[4] = DPPH free radical scavenging experiment (antioxidant activity); format: biochemical; details: average of three parallel experiments; 0.1 mM DPPH, 30 min in the dark, 517 nm
Method: The antioxidant activity of the synthesized benzofuran amidated derivative is evaluated by DPPH free radical scavenging experiment.
(1) Preparation of DPPH solution: accurately weigh the appropriate amount of DPPH, add MeOH and perform ultrasonic dissolution to prepare 10 mM stock solution, and store at −20° C. Dilute to 0.1 mM with MeOH before the experiment and store in the dark;
Use MeOH to dilute to different concentrations ([…]) before the experiment.
as §1

[5] = Hyperuricemia model induced by potassium oxonate in mice: serum uric acid; format: in vivo, Kunming mice; details: 2 h after administration, potassium oxonate 300 mg/kg
Method: The effect of benzofuran amidated derivatives on blood uric acid in mice is evaluated by an animal model of hyperuricemia induced by potassium oxonate
(1) Test animals: Kunming mice are provided by the Test Animals Center of Yangzhou University. Fasting is given 12 h before the drug administration and during the test period, and drinking water is not restricted during the experiment.
The test drug is prepared with 0.5% sodium carboxymethylcellulose (CMC-Na) at a suitable concentration; the normal control group of mice are intraperitoneally injected with 0.5% sodium carboxymethylcellulose, and the other groups are injected intraperitoneally with potassium oxonate 300 mg/kg. 1 h later, the mice in the normal control group and the model group are intraperitoneally injected with 0.5% sodium carboxymethylcellulose, and the other groups are intraperitoneally injected with 10 mL/kg of the test drug. 2 hours after the drug administration, 500 μL of blood is taken from the eyeball, placed at room temperature for 1 h, centrifuged at 3000 rpm for 5 min, and the upper serum is stored at −4° C. The uric acid level in the serum of the mice is determined according to the method as specified the uric acid detection kit.

xanthine oxidase, sequence (P47989 whole entry, species assumed): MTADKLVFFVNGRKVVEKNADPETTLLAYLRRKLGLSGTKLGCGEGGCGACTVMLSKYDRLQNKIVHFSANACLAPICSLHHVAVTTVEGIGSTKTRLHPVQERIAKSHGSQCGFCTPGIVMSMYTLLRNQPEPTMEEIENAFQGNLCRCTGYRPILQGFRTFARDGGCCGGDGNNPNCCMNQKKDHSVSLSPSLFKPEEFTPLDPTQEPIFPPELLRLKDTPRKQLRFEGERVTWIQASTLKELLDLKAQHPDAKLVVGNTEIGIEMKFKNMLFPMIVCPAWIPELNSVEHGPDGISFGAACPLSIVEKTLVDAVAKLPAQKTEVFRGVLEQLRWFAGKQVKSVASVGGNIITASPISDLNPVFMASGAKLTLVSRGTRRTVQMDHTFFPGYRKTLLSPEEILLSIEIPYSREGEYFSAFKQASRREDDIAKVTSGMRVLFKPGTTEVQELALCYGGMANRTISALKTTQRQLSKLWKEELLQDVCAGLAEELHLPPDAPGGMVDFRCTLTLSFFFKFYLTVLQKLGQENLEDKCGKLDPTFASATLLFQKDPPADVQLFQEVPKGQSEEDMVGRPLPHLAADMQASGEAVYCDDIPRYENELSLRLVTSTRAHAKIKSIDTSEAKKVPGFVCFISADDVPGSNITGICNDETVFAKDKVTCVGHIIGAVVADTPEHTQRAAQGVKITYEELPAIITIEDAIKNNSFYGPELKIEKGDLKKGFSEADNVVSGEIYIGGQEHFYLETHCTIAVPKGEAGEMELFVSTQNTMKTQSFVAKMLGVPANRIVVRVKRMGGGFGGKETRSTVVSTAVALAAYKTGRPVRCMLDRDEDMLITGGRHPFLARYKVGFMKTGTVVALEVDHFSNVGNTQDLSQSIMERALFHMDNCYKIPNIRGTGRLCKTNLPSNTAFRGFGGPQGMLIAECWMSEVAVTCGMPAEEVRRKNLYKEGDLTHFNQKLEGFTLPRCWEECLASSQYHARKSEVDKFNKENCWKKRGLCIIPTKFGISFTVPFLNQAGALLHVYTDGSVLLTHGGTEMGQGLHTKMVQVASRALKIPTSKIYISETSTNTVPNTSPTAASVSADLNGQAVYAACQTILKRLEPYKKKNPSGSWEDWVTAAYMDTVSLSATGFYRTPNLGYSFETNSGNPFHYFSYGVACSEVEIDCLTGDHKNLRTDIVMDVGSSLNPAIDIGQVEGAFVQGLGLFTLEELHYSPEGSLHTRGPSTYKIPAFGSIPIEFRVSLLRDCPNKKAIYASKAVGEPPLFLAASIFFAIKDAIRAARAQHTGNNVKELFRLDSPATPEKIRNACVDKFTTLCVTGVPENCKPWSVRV

SMILES	Decrease of 2-OH-E+ (%) [2]	IC50 [3]	other results
O=C(/C=C/c1ccc(O)c2oc(-c3ccc(O)c(O)c3)cc12)O[C@H](Cc1ccc(O)c(O)c1)C(=O)O [Salvianolic acid C, reference compound]	37.82%	8.26 µM	Inhibition rate (%) of uric acid ([1]; 10 μM, LO2 cells, 10 μM xanthine, 24 h): 15.2%; Inhibition rate (%) of uric acid ([1]; 30 μM, LO2 cells, 10 μM xanthine, 24 h): 24.7%; Inhibition rate (%) of uric acid ([1]; 50 μM, LO2 cells, 10 μM xanthine, 24 h): 31.4%; inhibitory effect on the formation of uric acid in hepatocyte model ([1]; xanthine modeling): significant inhibitory effect; scavenging effect on superoxide anion compared to the model group [2]: obvious scavenging effect; IC50 [4]: 6.87 µM
COC(=O)[C@H](Cc1ccc(O)c(O)c1)NC(=O)/C=C/c1ccc(O)c2oc(-c3ccc(O)c(O)c3)cc12 [Compound 5a, Methyl (S,E)-3-(3,4-dihydroxyphenyl)-2-(3-(2-(3,4-dihydroxyphenyl)-7-hydroxybenzofuran-4-yl)acrylamido)propanoate]	78.59%		
COC(=O)[C@@H](Cc1ccc(O)c(O)c1)NC(=O)/C=C/c1ccc(O)c2oc(-c3ccc(O)c(O)c3)cc12 [Compound 5b]	74.16%		Serum uric acid value (mg/dl) ([5]; 20 mg/kg intraperitoneal): 3.87 ± 0.31*^a mg/dl; Serum uric acid value ([5]; 40 mg/kg intraperitoneal): 3.61 ± 0.25 mg/dL; Serum uric acid value ([5]; 80 mg/kg intraperitoneal): 3.30 ± 0.46 mg/dL
N[C@@H](Cc1ccc(O)c(O)c1)C(=O)O [L-dopa]		> 60 µM	
C[C@H](NC(=O)/C=C/c1ccc(O)c2oc(-c3ccc(O)c(O)c3)cc12)C(=O)O [Compound 6c, (E)-(3-(2-(3,4-dihydroxyphenyl)-7-hydroxybenzofuran-4-yl)acryloyl)-L-alanine]	41.65%		scavenging effect on superoxide anion compared to the model group [2]: obvious scavenging effect
Cc1nc(-c2ccc(OCC(C)C)c(C#N)c2)sc1C(=O)O [Febuxostat]			inhibition at 5 µM ([1]; Homo sapiens, L02, 5 μM, LO2 cells, 10 μM xanthine, 24 h, read-out: Inhibition rate (%) of uric acid): 78.7%
O=C(/C=C/c1ccc(O)c2oc(-c3ccc(O)c(O)c3)cc12)N[C@H](Cc1ccc(O)c(O)c1)C(=O)O [Compound 6b, (R,E)-3-(3,4-dihydroxyphenyl)-2-(3-(2-(3,4-dihydroxyphenyl)-7-hydroxybenzofuran-4-yl)acrylamido) propanoic Acid]	80.81%		
Oc1ncnc2[nH]ncc12 [Allopurinol, reference compound]			Serum uric acid value ([5]; 20 mg/kg intraperitoneal): 3.18 ± 0.50 mg/dL
COC(=O)[C@@H](Cc1ccc(OC)c(OC)c1)OC(=O)/C=C/c1ccc(OC)c2oc(-c3ccc(OC)c(OC)c3)cc12 [Compound 7, (2R)-3-(3,4-dimethoxyphenyl)-1-methoxy-1-oxopropan-2-yl (2E)-3-[2-(3,4-dimethoxyphenyl)-7-methoxy-1-benzofuran-4-yl]prop-2-enoate]		> 60 µM	IC50 [4]: > 100 µM
N[C@@H](Cc1c[nH]c2ccccc12)C(=O)O [L-trp]		> 60 µM	
O=C(/C=C/c1ccc(O)c2oc(-c3ccc(O)c(O)c3)cc12)N[C@@H](Cc1ccccc1)C(=O)O [Compound 6d, (E)-(3-(2-(3,4-dihydroxyphenyl)-7-hydroxybenzofuran-4-yl)acryloyl)-L-phenylalanine]	81.27%		
N[C@@H](CS)C(=O)O [L-cys]		> 60 µM	
O=C(/C=C/c1ccc(O)c2oc(-c3ccc(O)c(O)c3)cc12)N[C@@H](Cc1ccc(O)cc1)C(=O)O [Compound 6e, (E)-(3-(2-(3,4-dihydroxyphenyl)-7-hydroxybenzofuran-4-yl)acryloyl)-L-tyrosine]	83.41%		Serum uric acid value ([5]; 20 mg/kg intraperitoneal): 3.82 ± 0.62 mg/dL; Serum uric acid value ([5]; 40 mg/kg intraperitoneal): 3.54 ± 0.26 mg/dL; Serum uric acid value ([5]; 80 mg/kg intraperitoneal): 3.26 ± 0.44 mg/dL
COC(=O)[C@H](C)NC(=O)/C=C/c1ccc(O)c2oc(-c3ccc(O)c(O)c3)cc12 [Compound 5c, Methyl (E)-(3-(2-(3,4-dihydroxyphenyl)-7-hydroxybenzofuran-4-yl)acryloyl)-L-alaninate]	60.54%		
CSCC[C@H](N)C(=O)O [L-met]		> 60 µM	
N[C@@H](Cc1ccc(O)cc1)C(=O)O [L-tyr]		> 60 µM	
N[C@@H](Cc1ccccc1)C(=O)O [L-phe]		> 60 µM	
Cc1c(C)c2c(c(C)c1O)CC[C@@](C)(CCC[C@H](C)CCC[C@H](C)CCCC(C)C)O2 [Ve, vitamin E, reference compound]	53.18%		
N[C@H](Cc1ccc(O)c(O)c1)C(=O)O [D-dopa]		> 60 µM	
C[C@H](N)C(=O)O [L-ala]		> 60 µM	
